Laboratory results from patent US12083109B2, “Neurokinin antagonists and uses thereof” (California Institute of Technology, priority 2017, dated 2024).
“Also recorded” adds a separate entry of the source. Where two headings read alike, the source gives them in different places.

Legend:
[1] = biological target: T1, NK3R (Homo sapiens, UniProt P29371); conditions: cited from earlier work; for safety and tolerability in clinical trials: human, Phase I
T1 construct: host or cells: human trial subjects
T1 sequence (P29371 1-465): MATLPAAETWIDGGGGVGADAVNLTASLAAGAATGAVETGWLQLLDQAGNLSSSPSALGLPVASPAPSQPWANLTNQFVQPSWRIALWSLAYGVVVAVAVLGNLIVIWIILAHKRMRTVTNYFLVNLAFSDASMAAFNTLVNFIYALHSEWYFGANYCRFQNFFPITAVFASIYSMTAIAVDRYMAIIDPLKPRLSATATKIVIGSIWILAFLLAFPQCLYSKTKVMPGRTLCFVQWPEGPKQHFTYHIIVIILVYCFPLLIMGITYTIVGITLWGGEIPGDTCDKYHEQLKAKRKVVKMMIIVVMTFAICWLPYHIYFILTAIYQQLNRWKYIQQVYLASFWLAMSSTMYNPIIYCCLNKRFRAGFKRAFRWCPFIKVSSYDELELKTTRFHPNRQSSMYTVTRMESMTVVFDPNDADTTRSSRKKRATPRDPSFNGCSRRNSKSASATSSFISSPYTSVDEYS

[2] = biological target: T2, hM4DREADD in Tac2+ neurons (Homo sapiens, UniProt P08173, A203G/Y113C); assay: Tone fear test, CNO silencing of Tac2+ neurons (hM4DREADD); format: in vivo, mouse
T2 construct: host or cells: Tac2+ neurons of Tac2-Cre mice (dBNSTa, DMH or CeA), transduced in vivo with AAV2-EF1a-DIO-hM4D-mCherry
T2 sequence (P08173 1-479 Y113C/A203G): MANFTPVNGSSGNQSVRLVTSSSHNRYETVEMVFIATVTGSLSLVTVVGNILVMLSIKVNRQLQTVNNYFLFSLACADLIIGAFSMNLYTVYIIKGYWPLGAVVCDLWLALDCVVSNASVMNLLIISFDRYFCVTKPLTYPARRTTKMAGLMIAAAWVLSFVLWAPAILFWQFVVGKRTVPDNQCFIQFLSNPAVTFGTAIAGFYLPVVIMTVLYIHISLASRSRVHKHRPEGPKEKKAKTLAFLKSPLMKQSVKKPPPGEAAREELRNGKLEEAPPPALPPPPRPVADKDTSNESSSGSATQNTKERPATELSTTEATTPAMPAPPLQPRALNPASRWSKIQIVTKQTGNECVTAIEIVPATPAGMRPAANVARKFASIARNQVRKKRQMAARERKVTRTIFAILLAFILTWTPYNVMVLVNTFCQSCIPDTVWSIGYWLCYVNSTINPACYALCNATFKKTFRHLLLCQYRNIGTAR
Procedure: The protocol for tone trace fear conditioning was performed as previously described (Cushman et al., 2014; incorporated by reference in its entirety) using fear conditioning boxes previously described in detail (Haubensak et al., 2010; Kunwar et al., 2015; incorporated by reference in their entirety). Briefly, mice were transported in squads of four on a white cart to a novel behavioral testing room containing 4 sound-attenuating fear-conditioning chambers (Med Associates). This “training context” was comprised of flat grid flooring (wired to a shock generator and scrambler for footshock delivery, Med Associates), houselights, and the presence of an internal fan for background noise. Chambers were sprayed with 70% Simple Green solution on the underlying chamber pan to generate a unique contextual scent and chambers were cleaned with 70% EtOH between squads. Trace fear conditioning consisted of a 3 minute baseline period followed by 3 tone-shock trials consisting of a 20 second tone conditional stimulus (CS; 75 dB, 2800 Hz), a 20 second trace interval and a 2 second footshock unconditional stimulus (US; 0.7 mA). The inter-trial interval (ITI) between trials was 60 seconds. Mice remained in the chambers an additional 60 seconds before being transported back to the vivarium. The following day, mice were transported in fresh cardboard boxes to a novel behavioral testing room consisting of 4 distinct fear-conditioning boxes to test for tone fear. […] Freezing behavior during the baseline period as well as during each tone presentation (“during”) and trace interval (“post”) were assessed as previously described (Zelikowsky et al., 2014; incorporated by reference in its entirety) using automated near-infrared video tracking equipment and computer software (VideoFreeze, Med Associates). Shock reactivity (motion, arbitrary units) was measured during the 2 second shock US as well as the 3 seconds immediately following. […]

Structure (SMILES) | efficacy in schizophrenia, bipolar and panic disorder ([1]; human clinical trials) | efficacy in schizophrenia and major depressive disorder ([1]; human trials, Phase II/III) | safety and tolerability in clinical trials [1] | safety and tolerability in clinical trials ([1]; listed as Osanetant) | acute (during) freezing to conditioned tone ([2]; SIS Tac2-Cre mice, hM4DREADD in CeA, CNO 5 mg/kg i.p.) | persistent (post) freezing to conditioned tone ([2]; SIS Tac2-Cre mice, hM4DREADD in dBNSTa, CNO 5 mg/kg i.p.) | tone fear test freezing in mCherry control virus mice ([2]; SIS mice, AAV2-EF1a-DIO-mCherry control virus in dBNSTa (no hM4DREADD), CNO vs vehicle)
CC(=O)N(C)C1(c2ccccc2)CCN(CCC[C@]2(c3ccc(Cl)c(Cl)c3)CCCN(C(=O)c3ccccc3)C2)CC1 [osanetant, N-(1-{3-[(3R)-1-benzoyl-3-(3,4-dichlorophenyl)piperidin-3-yl]propyl}-4-phenylpiperidin-4-yl)-N-methylacetamide] | lack of efficacy | lack of efficacy | safe and well-tolerated | well tolerated; also recorded: exhibited safety | – | – | –
C[N+]1([O-])CCN(C2=Nc3cc(Cl)ccc3Nc3ccccc32)CC1 [CNO, clozapine-N-oxide] | – | – | – | – | blocked; also recorded: suppressed | blocked; also recorded: selectively attenuated | had no effect; also recorded: did not observe any effects; also recorded: no significant effects
